In patent publication US10131652B2, “Pyrimidinyloxy benzene derivatives as herbicides” (E. I. DU PONT DE NEMOURS AND COMPANY, priority 2014, dated 2018):
Where two headings read alike, the source gives them in different places.

Key:
Experiment in all cases: Test D pre-/postemergence plant response
Type in all cases: in vivo
[1] = test system: johnsongrass (Sorghum halepense); settings: Sorghum halepense; for pest or weed control at 62 g/ha: 62 g ai/ha; for pest or weed control at 125 g/ha: 125 g ai/ha
How it was run: (§1)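 Each compound, in non-phytotoxic solvent with surfactant, was sprayed onto soil right after sowing or onto young plants 2 to 18 cm tall. After 13 to 15 days under greenhouse conditions, effects were judged visually against controls on a 0 (no effect) to 100 (complete control) scale.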

soybean (Glycine max) = settings: Glycine max; for plant injury at 16 g/ha: 16 g ai/ha; for plant injury at 31 g/ha: 31 g ai/ha; for plant injury at 62 g/ha: 62 g ai/ha; for plant injury at 125 g/ha: 125 g ai/ha
How it was run: as §1

[2] = test system: blackgrass (Alopecurus myosuroides); settings: Alopecurus myosuroides; for pest or weed control at 16 g/ha: 16 g ai/ha; for pest or weed control at 31 g/ha: 31 g ai/ha; for pest or weed control at 62 g/ha: 62 g ai/ha; for pest or weed control at 125 g/ha: 125 g ai/ha
How it was run: as §1

[3] = test system: morningglory (Ipomoea coccinea); settings: Ipomoea; for pest or weed control at 16 g/ha: 16 g ai/ha; for pest or weed control at 31 g/ha: 31 g ai/ha; for pest or weed control at 62 g/ha: 62 g ai/ha; for pest or weed control at 125 g/ha: 125 g ai/ha
How it was run: as §1

[4] = test system: yellow nutsedge (Cyperus esculentus); settings: Cyperus; for pest or weed control at 16 g/ha: 16 g ai/ha; for pest or weed control at 31 g/ha: 31 g ai/ha; for pest or weed control at 62 g/ha: 62 g ai/ha; for pest or weed control at 125 g/ha: 125 g ai/ha
How it was run: as §1

[5] = test system: giant foxtail (Setaria faberii); settings: Setaria faberi; for pest or weed control at 16 g/ha: 16 g ai/ha; for pest or weed control at 31 g/ha: 31 g ai/ha; for pest or weed control at 62 g/ha: 62 g ai/ha; for pest or weed control at 125 g/ha: 125 g ai/ha
How it was run: as §1

[6] = test system: large (Lg) crabgrass (Digitaria sanguinalis); settings: Digitaria sanguinalis; for pest or weed control at 16 g/ha: 16 g ai/ha; for pest or weed control at 31 g/ha: 31 g ai/ha; for pest or weed control at 62 g/ha: 62 g ai/ha; for pest or weed control at 125 g/ha: 125 g ai/ha
How it was run: as §1

[7] = post-emergence, Postemergence, scale 0 to 100, 0 no effect, 100 complete control, read-out: Plant response rating, Johnsongrass
[8] = pre-emergence, Preemergence, scale 0 to 100 (0 no effect, 100 complete control), read-out: Plant response rating, Soybean
[9] = post-emergence, Postemergence, scale 0 to 100, 0 no effect, 100 complete control, read-out: Plant response rating, Blackgrass
[10] = pre-emergence, Preemergence, scale 0 to 100 (0 no effect, 100 complete control), read-out: Plant response rating, Blackgrass
[11] = pre-emergence, Preemergence, scale 0 to 100 (0 no effect, 100 complete control), read-out: Plant response rating, Morningglory
[12] = pre-emergence, Preemergence, scale 0 to 100 (0 no effect, 100 complete control), read-out: Plant response rating, Nutsedge, Yellow
[13] = post-emergence, Postemergence, scale 0 to 100, 0 no effect, 100 complete control, read-out: Plant response rating, Foxtail, Giant
[14] = pre-emergence, Preemergence, scale 0 to 100 (0 no effect, 100 complete control), read-out: Plant response rating, Foxtail, Giant
[15] = post-emergence, Postemergence, scale 0 to 100, 0 no effect, 100 complete control, read-out: Plant response rating, Crabgrass, Large
[16] = pre-emergence, Preemergence, scale 0 to 100 (0 no effect, 100 complete control), read-out: Plant response rating, Crabgrass, Large

Compound: FC(F)(F)c1cc(-c2ccccc2Oc2ncc(Cl)cn2)no1 [Compound 200, 5-chloro-2-[2-[5-(trifluoromethyl)-3-isoxazolyl]phenoxy]pyrimidine]
- pest or weed control at 62 g/ha [1, 7]: 45%
- pest or weed control at 125 g/ha [1, 7]: 40%
- pest or weed control at 125 g/ha ([1]; pre-emergence, Preemergence, read-out: Plant response rating (scale 0 to 100), Johnsongrass): 100%
- pest or weed control at 16 g/ha ([1]; pre-emergence, Preemergence, 16 g ai/ha, scale 0 to 100 (0 no effect, 100 complete control), read-out: Plant response rating, Johnsongrass): 25%
- pest or weed control at 31 g/ha ([1]; pre-emergence, Preemergence, 31 g ai/ha, scale 0 to 100 (0 no effect, 100 complete control), read-out: Plant response rating, Johnsongrass): 60%
- pest or weed control at 62 g/ha ([1]; pre-emergence, Preemergence, scale 0 to 100 (0 no effect, 100 complete control), read-out: Plant response rating, Johnsongrass): 85%
- plant injury at 16 g/ha (soybean (Glycine max); post-emergence, Postemergence, read-out: Plant response rating (scale 0 to 100), Soybean): 60%
- plant injury at 31 g/ha (soybean (Glycine max); post-emergence, Postemergence, scale 0 to 100 (0 no effect, 100 complete control), read-out: Soybean plant response rating): 85%
- plant injury at 62 g/ha (soybean (Glycine max); post-emergence, Postemergence, scale 0 to 100, 0 no effect, 100 complete control, read-out: Soybean plant response rating): 90%
- plant injury at 125 g/ha (soybean (Glycine max); post-emergence, Postemergence, scale 0 to 100, 0 no effect, 100 complete control, read-out: Plant response rating, Soybean): 98%
- plant injury at 125 g/ha (soybean (Glycine max); pre-emergence, Preemergence, read-out: Plant response rating (scale 0 to 100), Soybean): 85%
- plant injury at 16 g/ha (soybean (Glycine max); [8]): 100%
- plant injury at 31 g/ha (soybean (Glycine max); [8]): 10%
- plant injury at 62 g/ha (soybean (Glycine max); [8]): 40%
- pest or weed control at 16 g/ha ([2]; post-emergence, Postemergence, read-out: Plant response rating (scale 0 to 100), Blackgrass): 30%
- pest or weed control at 31 g/ha ([2]; post-emergence, Postemergence, scale 0 to 100 (0 no effect, 100 complete control), read-out: Blackgrass plant response rating): 30%
- pest or weed control at 62 g/ha [2, 9]: 40%
- pest or weed control at 125 g/ha [2, 9]: 90%
- pest or weed control at 125 g/ha ([2]; pre-emergence, Preemergence, read-out: Plant response rating (scale 0 to 100), Blackgrass): 90%
- pest or weed control at 16 g/ha [2, 10]: 85%
- pest or weed control at 31 g/ha [2, 10]: 90%
- pest or weed control at 62 g/ha [2, 10]: 90%
- pest or weed control at 16 g/ha ([3]; post-emergence, Postemergence, read-out: Plant response rating (scale 0 to 100), Morningglory): 55%
- pest or weed control at 31 g/ha ([3]; post-emergence, Postemergence, scale 0 to 100 (0 no effect, 100 complete control), read-out: Morningglory plant response rating): 50%
- pest or weed control at 62 g/ha ([3]; post-emergence, Postemergence, scale 0 to 100, 0 no effect, 100 complete control, read-out: Morningglory plant response rating): 85%
- pest or weed control at 125 g/ha ([3]; post-emergence, Postemergence, scale 0 to 100, 0 no effect, 100 complete control, read-out: Plant response rating, Morningglory): 98%
- pest or weed control at 125 g/ha ([3]; pre-emergence, Preemergence, read-out: Plant response rating (scale 0 to 100), Morningglory): 90%
- pest or weed control at 16 g/ha [3, 11]: 5%
- pest or weed control at 31 g/ha [3, 11]: 45%
- pest or weed control at 62 g/ha [3, 11]: 70%
- pest or weed control at 16 g/ha ([4]; post-emergence, Postemergence, read-out: Plant response rating (scale 0 to 100), Nutsedge, Yellow): 5%
- pest or weed control at 31 g/ha ([4]; post-emergence, Postemergence, scale 0 to 100 (0 no effect, 100 complete control), read-out: Nutsedge, Yellow plant response rating): 5%
- pest or weed control at 62 g/ha ([4]; post-emergence, Postemergence, scale 0 to 100, 0 no effect, 100 complete control, read-out: Nutsedge, Yellow plant response rating): 5%
- pest or weed control at 125 g/ha ([4]; post-emergence, Postemergence, scale 0 to 100, 0 no effect, 100 complete control, read-out: Plant response rating, Nutsedge, Yellow): 15%
- pest or weed control at 125 g/ha ([4]; pre-emergence, Preemergence, read-out: Plant response rating (scale 0 to 100), Nutsedge, Yellow): 15%
- pest or weed control at 16 g/ha [4, 12]: 0%
- pest or weed control at 31 g/ha [4, 12]: 0%
- pest or weed control at 62 g/ha [4, 12]: 0%
- pest or weed control at 16 g/ha ([5]; post-emergence, Postemergence, read-out: Plant response rating (scale 0 to 100), Foxtail, Giant): 5%
- pest or weed control at 31 g/ha ([5]; post-emergence, Postemergence, scale 0 to 100 (0 no effect, 100 complete control), read-out: Foxtail, Giant plant response rating): 20%
- pest or weed control at 62 g/ha [5, 13]: 10%
- pest or weed control at 125 g/ha [5, 13]: 15%
- pest or weed control at 125 g/ha ([5]; pre-emergence, Preemergence, read-out: Plant response rating (scale 0 to 100), Foxtail, Giant): 100%
- pest or weed control at 16 g/ha [5, 14]: 95%
- pest or weed control at 31 g/ha [5, 14]: 100%
- pest or weed control at 62 g/ha [5, 14]: 100%
- pest or weed control at 16 g/ha ([6]; post-emergence, Postemergence, read-out: Plant response rating (scale 0 to 100), Crabgrass, Large): 10%
- pest or weed control at 31 g/ha ([6]; post-emergence, Postemergence, scale 0 to 100 (0 no effect, 100 complete control), read-out: Crabgrass, Large plant response rating): 10%
- pest or weed control at 62 g/ha [6, 15]: 25%
- pest or weed control at 125 g/ha [6, 15]: 35%
- pest or weed control at 125 g/ha ([6]; pre-emergence, Preemergence, read-out: Plant response rating (scale 0 to 100), Crabgrass, Large): 100%
- pest or weed control at 16 g/ha [6, 16]: 98%
- pest or weed control at 31 g/ha [6, 16]: 100%
- pest or weed control at 62 g/ha [6, 16]: 100%
